Results: PubChem BioAssay (NCI)
“And” between values parts separate entries of the source, which are not always exact repeats. Identical values can stand only once.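 Results reflect a 48-hour exposure of cells in 96-well plates to compound at five concentrations. GI50: concentration for 50% inhibition of growth. At the TGI there is no net growth.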

Assays:
Experiment in all cases: inhibition of tumour cell growth, NCI panel, 48 h
[1] = tested on: OVCAR-3 ovarian
[2] = tested on: 786-0 renal
[3] = tested on: RXF 393 renal
[4] = tested on: HCT-116 colon
[5] = tested on: HT29 colon
[6] = tested on: SNB-75 CNS
[7] = tested on: EKVX NSCLC
[8] = tested on: HCC-2998 colon
[9] = tested on: OVCAR-5 ovarian
[10] = tested on: SF-268 CNS

Structure (SMILES)	GI50 [1]	TGI [1]	GI50 [2]	TGI [2]	TGI [3]	GI50 [4]	TGI [4]	GI50 [5]	TGI [5]	GI50 [6]	TGI [6]	TGI [7]	TGI [8]	GI50 [9]	TGI [9]	GI50 [10]	TGI [10]	GI50 [3]	GI50 [8]	GI50 [7]
O=S(=O)(/C=C/C=C/S(=O)(=O)c1ccccc1)c1ccccc1	1.46 µM	1.82 µM and 2.9 µM	0.956 µM	1.1 µM and 2.22 µM	0.809 µM and 1.45 µM	0.606 µM	2.8 µM and 1.95 µM	1.4 µM	2.69 µM and 2.85 µM	13.9 µM	26.8 µM	3.53 µM	25.1 µM	1.9 µM	5.28 µM	2.51 µM	8.06 µM and 5.4 µM			
CC(C)(Cl)CCC1=C(Cl)C(=O)c2ccccc2C1=O	1.72 µM	3.17 µM	3.41 µM	10.7 µM		1.59 µM	3.19 µM	15.6 µM	31.5 µM	1.69 µM	6.44 µM			2.25 µM	5.6 µM	3.07 µM	11.3 µM			
CCCCCCCC[N+](C)(C)Cc1ccc(C[N+](C)(C)CCCCCCCC)cc1		> 100 µM		> 100 µM	> 100 µM		> 100 µM		> 100 µM		> 100 µM	> 100 µM	> 100 µM		> 100 µM		> 100 µM			
C=C(C)C1CC=C(C(=O)O)CC1 (centres undefined)		1660 µM		4700 µM	3110 µM		1500 µM		> 5000 µM		3780 µM	> 5000 µM	2340 µM		> 5000 µM		4060 µM			
Cc1nc(NC(=S)NC(=O)c2ccc(Cl)c(Cl)c2)sc1C(=O)/C=C/c1ccccc1[N+](=O)[O-]		51.7 µM		33.5 µM	41 µM		47.9 µM		46 µM			91.6 µM	> 100 µM				> 100 µM			
O=C1C2CC3C(CC2C(=O)[N]1[Sn]([c]1ccccc1)([c]1ccccc1)[c]1ccccc1)C1(Cl)C(Cl)=C(Cl)C3(Cl)C1(Cl)Cl (centres undefined)	0.0964 µM	0.222 µM	0.157 µM	0.336 µM	0.26 µM	0.0473 µM	0.183 µM			0.0347 µM	0.19 µM		0.281 µM	0.151 µM	0.317 µM	0.111 µM	0.286 µM	0.0863 µM	0.122 µM	
CC(=O)O[C@H](C[C@H](C(C)C)N(C)C(=O)[C@@H](NC(=O)[C@H]1CCCCN1C)C(C)C)c1nc(C(=O)N[C@@H](Cc2ccccc2)C[C@H](C)C(=O)O)c(C)s1	< 0.0025 µM	> 25 µM	< 0.0025 µM	> 25 µM		< 0.0025 µM	> 25 µM	< 0.0025 µM	> 25 µM	< 0.0025 µM	> 25 µM	> 25 µM	> 25 µM	0.0085 µM	> 25 µM	< 0.0025 µM	> 25 µM		< 0.0025 µM	0.00266 µM
CC(=O)[CH-]C(=O)c1ccccc1.CC(=O)[CH-]C(=O)c1ccccc1.O=C([O-])C[O-].O=C([O-])C[O-].[Ti+4]	42.7 µM	> 100 µM	71.7 µM	> 100 µM		21.8 µM	> 100 µM	27.7 µM	91.7 µM	18.6 µM	56.7 µM	> 100 µM	> 100 µM	> 100 µM	> 100 µM	> 100 µM	> 100 µM		40.3 µM	96.7 µM
O=C(O)/C(Cl)=C(\Cl)Nc1cccc(C(F)(F)F)c1		> 100 µM		> 100 µM	> 100 µM				> 100 µM		> 100 µM	> 100 µM	> 100 µM				> 100 µM			
CCCCCCCCCCCCCOC(=O)c1c(C)[nH]c(/C=C2\N=C(c3ccc[nH]3)C=C2OC)c1C	0.227 µM	15.5 µM	0.161 µM	12.7 µM	10.5 µM	< 0.0122 µM		< 0.0126 µM	> 100 µM	0.919 µM	10.9 µM		> 44.4 µM	0.0929 µM	> 100 µM	0.109 µM	> 59 µM	0.465 µM	0.0307 µM	
O=C(O)C1C2C=CC(O2)C1C(=O)Nc1ccccc1 (centres undefined)		> 100 µM		> 100 µM	> 100 µM		> 100 µM		> 100 µM		> 100 µM	> 100 µM			> 100 µM		> 100 µM			
c1cncc(C2c3[nH]c4ccccc4c3CCN2CCCN2CCCCC2)c1 (centres undefined)		> 100 µM		> 100 µM	> 100 µM		> 100 µM		> 100 µM		> 100 µM	> 100 µM	> 100 µM		> 100 µM					
OCCN1CCN(CCO)Cc2ccccc2OCCOc2ccccc2C1		> 100 µM		> 100 µM	> 100 µM		> 100 µM		> 100 µM		> 100 µM	> 100 µM			> 100 µM		> 100 µM			
C=C1C(=O)O[C@@H]2[C@H]1CC[C@H](C)[C@]1(O)CCC(=O)[C@@]21C		> 10 µM		> 10 µM	> 10 µM		> 10 µM		> 10 µM		> 10 µM	> 10 µM	> 10 µM				> 10 µM			
CCOC(=O)/C(=C/c1ccc(OC)c(OC)c1)C(=O)c1ccccc1		33.6 µM		> 100 µM					30.8 µM		28.5 µM	67.4 µM	32.5 µM		40.6 µM		36.7 µM			
CCN1C(=O)N(CC)C2C1NN=c1s/c(=C3\C(=O)N(CCC(C)C)c4ccccc43)c(=O)n12 (centres undefined)	1.75 µM	4.33 µM	1.83 µM	4.5 µM	3.62 µM	1.06 µM	2.49 µM			0.802 µM	2.5 µM	> 100 µM	4.54 µM			2.8 µM	20.5 µM	0.738 µM	1.92 µM	1.34 µM
O=c1ncc(-c2ccc(C(F)(F)F)cc2)c(NC2CCCCCC2)[nH]1	17.2 µM	34.6 µM	23.6 µM	52.4 µM	31.8 µM	16.8 µM	33.6 µM	21.5 µM	39 µM	13.7 µM	33.4 µM		35.9 µM	22.9 µM	48.3 µM	18.4 µM	36.5 µM	15.8 µM	20 µM	
